# Read-outs that look alike come from different tables or passages of the source.
# What was measured:
# [1] = system: HCV genotype 1a (H77 strain) replicon in HUH-7 cells; test: HCV replicon luciferase reporter assay, genotype 1a; type: cell-based; details: Hepatitis C virus, Huh-7, 72 h, HCV genotype 1a replicon luciferase, 3 days incubation, read-out: LE_1a (EC50, range)
# How it was run: (§1)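 Replicon inhibition for both genotypes was measured as Renilla luciferase signal (EnduRen, 7.5 μM final, 2 h) after 3-day, 37° C exposure of replicon-bearing HUH-7 cells in 4% FCS DMEM, 0.5% DMSO. The 1b construct carries S1179I; the 1a H77 construct carries P1496L and S2204I. Twenty-point, 3-fold dilutions were fitted four-parametrically for EC50, and CC50 was taken from multiplexed Cell Titer-Blue.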
# [2] = system: HCV genotype 1b (Con1) replicon in HUH-7 cells; test: HCV replicon luciferase reporter assay, genotype 1b; type: cell-based; details: Hepatitis C virus, Huh-7, 72 h, HCV genotype 1b replicon luciferase, 3 days incubation, read-out: LE_1b (EC50, range)
# How it was run: as §1
Compound,EC50 [1],EC50 [2],EC50 ([1]; GETYPE1A),EC50 ([2]; GETYPE1B)
"COc1cnc(O[C@@H]2C[C@H]3C(=O)N[C@]4(C(=O)NS(=O)(=O)C5(F)CC5)C[C@H]4/C=C\CC[C@H](C)C[C@@H](C)[C@H](NC(=O)OC(C)(C)C)C(=O)N3C2)c2cc(F)ccc12 [Compound 4046, tert-butyl (2R,6S,7R,9S,13aS,14aR,16aS,Z)-2-(7-fluoro-4-methoxyisoquinolin-1-yloxy)-14a-(1-fluorocyclopropylsulfonylcarbamoyl)-7,9-dimethyl-5,16-dioxo-1,2,3,5,6,7,8,9,10,11,13a,14,14a,15,16,16a-hexadecahydrocyclopropa[e]pyrrolo[1,2-a][1,4]diazacyclopentadecin-6-ylcarbamate]",4.82 to 103 nM,4.82 to 103 nM,,
"COc1cnc(O[C@@H]2C[C@H]3C(=O)N[C@]4(C(=O)NS(=O)(=O)C5(F)CC5)C[C@H]4/C=C\CC[C@@H](C)C[C@@H](C)[C@H](NC(=O)OCC(C)(C)C)C(=O)N3C2)c2cc(F)ccc12 [Compound 4047, neopentyl (2R,6S,7R,9R,13aS,14aR,16aS,Z)-2-(7-fluoro-4-methoxyisoquinolin-1-yloxy)-14a-(1-fluorocyclopropylsulfonylcarbamoyl)-7,9-dimethyl-5,16-dioxo-1,2,3,5,6,7,8,9,10,11,13a,14,14a,15,16,16a-hexadecahydrocyclopropa[e]pyrrolo[1,2-a][1,4]diazacyclopentadecin-6-ylcarbamate]",< 5.46 nM,< 5.46 nM,,
"COc1cnc(O[C@@H]2C[C@H]3C(=O)N[C@]4(C(=O)NS(=O)(=O)C5(F)CC5)C[C@H]4/C=C\CC[C@@H](C)C[C@@H](C)[C@H](NC(=O)OCC4(C)CC4)C(=O)N3C2)c2cc(F)ccc12 [Compound 4048, (1-methylcyclopropyl)methyl (2R,6S,7R,9R,13aS,14aR,16aS,Z)-2-(7-fluoro-4-methoxyisoquinolin-1-yloxy)-14a-(1-fluorocyclopropylsulfonylcarbamoyl)-7,9-dimethyl-5,16-dioxo-1,2,3,5,6,7,8,9,10,11,13a,14,14a,15,16,16a-hexadecahydrocyclopropa[e]pyrrolo[1,2-a][1,4]diazacyclopentadecin-6-ylcarbamate]",< 5.46 nM,< 5.46 nM,,
"COc1cc2ccnc(O[C@@H]3C[C@H]4C(=O)N[C@]5(C(=O)NS(=O)(=O)C6(F)CC6)C[C@H]5/C=C\CC[C@@H](C)C[C@@H](C)[C@H](NC(=O)OC(C)(C)C)C(=O)N4C3)c2cc1F [Compound 4049, tert-butyl (2R,6S,7R,9R,13aS,14aR,16aS,Z)-2-(7-fluoro-6-methoxyisoquinolin-1-yloxy)-14a-(1-fluorocyclopropylsulfonylcarbamoyl)-7,9-dimethyl-5,16-dioxo-1,2,3,5,6,7,8,9,10,11,13a,14,14a,15,16,16a-hexadecahydrocyclopropa[e]pyrrolo[1,2-a][1,4]diazacyclopentadecin-6-ylcarbamate]",< 5.46 nM,< 5.46 nM,,
"COc1cc2ccnc(O[C@@H]3C[C@H]4C(=O)N[C@]5(C(=O)NS(=O)(=O)C6(F)CC6)C[C@H]5/C=C\CC[C@@H](C)C[C@@H](C)[C@H](NC(=O)OCC5(C)CC5)C(=O)N4C3)c2cc1F [Compound 4050, (1-methylcyclopropyl)methyl (2R,6S,7R,9R,13aS,14aR,16aS,Z)-2-(7-fluoro-6-methoxyisoquinolin-1-yloxy)-14a-(1-fluorocyclopropylsulfonylcarbamoyl)-7,9-dimethyl-5,16-dioxo-1,2,3,5,6,7,8,9,10,11,13a,14,14a,15,16,16a-hexadecahydrocyclopropa[e]pyrrolo[1,2-a][1,4]diazacyclopentadecin-6-ylcarbamate]",< 5.46 nM,< 5.46 nM,,
"COc1cc2ccnc(O[C@@H]3C[C@H]4C(=O)N[C@]5(C(=O)NS(=O)(=O)C6(F)CC6)C[C@H]5/C=C\CC[C@@H](C)C[C@@H](C)[C@H](NC(=O)OCC(C)(C)C)C(=O)N4C3)c2cc1F [Compound 4051, neopentyl (2R,6S,7R,9R,13aS,14aR,16aS,Z)-2-(7-fluoro-6-methoxyisoquinolin-1-yloxy)-14a-(1-fluorocyclopropylsulfonylcarbamoyl)-7,9-dimethyl-5,16-dioxo-1,2,3,5,6,7,8,9,10,11,13a,14,14a,15,16,16a-hexadecahydrocyclopropa[e]pyrrolo[1,2-a][1,4]diazacyclopentadecin-6-ylcarbamate]",< 5.46 nM,< 5.46 nM,,
COc1cnc(O[C@@H]2C[C@H]3C(=O)N[C@]4(C(=O)NS(=O)(=O)C5(C)CC5)C[C@H]4/C=C\CC[C@@H](C)C[C@@H](C)[C@H](NC(=O)OC(C)(C)C(F)(F)F)C(=O)N3C2)c2ccccc12 [Compound 4052],< 5.46 nM,< 5.46 nM,,
"CCOc1cnc(O[C@@H]2C[C@H]3C(=O)N[C@]4(C(=O)NS(=O)(=O)C5(F)CC5)C[C@H]4/C=C\CC[C@@H](C)C[C@@H](C)[C@H](NC(=O)OC(C)(C)C)C(=O)N3C2)c2ccccc12 [Compound 4053, tert-butyl (2R,6S,7R,9R,13aS,14aR,16aS,Z)-2-(4-ethoxyisoquinolin-1-yloxy)-14a-(1-fluorocyclopropylsulfonylcarbamoyl)-7,9-dimethyl-5,16-dioxo-1,2,3,5,6,7,8,9,10,11,13a,14,14a,15,16,16a-hexadecahydrocyclopropa[e]pyrrolo[1,2-a][1,4]diazacyclopentadecin-6-ylcarbamate]",< 5.46 nM,< 5.46 nM,,
COc1ccc2c(O[C@@H]3C[C@H]4C(=O)N[C@]5(C(=O)NS(=O)(=O)C6CC6)C[C@H]5/C=C\CC[C@@H](C)C[C@@H](C)[C@H](NC(=O)OC5(C)CC5)C(=O)N4C3)nccc2c1 [Compound 4054],< 5.46 nM,< 5.46 nM,,
"C[C@@H]1CC/C=C\[C@@H]2C[C@@]2(C(=O)NS(=O)(=O)C2(C)CC2)NC(=O)[C@@H]2C[C@@H](Oc3ncc(OC4CC4)c4ccccc34)CN2C(=O)[C@@H](NC(=O)OC2CCCCC2)[C@H](C)C1 [Compound 4055, cyclohexyl (2R,6S,7R,9R,13aS,14aR,16aS,Z)-2-(4-cyclopropoxyisoquinolin-1-yloxy)-7,9-dimethyl-14a-(1-methylcyclopropylsulfonylcarbamoyl)-5,16-dioxo-1,2,3,5,6,7,8,9,10,11,13a,14,14a,15,16,16a-hexadecahydrocyclopropa[e]pyrrolo[1,2-a][1,4]diazacyclopentadecin-6-ylcarbamate]",< 5.46 nM,< 5.46 nM,,
"C[C@@H]1CC/C=C\[C@@H]2C[C@@]2(C(=O)NS(=O)(=O)C2(C)CC2)NC(=O)[C@@H]2C[C@@H](Oc3ncc(OC4CC4)c4ccccc34)CN2C(=O)[C@@H](NC(=O)OC(C)(C)C(F)(F)F)[C@H](C)C1 [Compound 4056, 1,1,1-trifluoro-2-methylpropan-2-yl ((2R,6S,7R,9R,13aS,14aR,16aS,Z)-2-((4-cyclopropoxyisoquinolin-1-yl)oxy)-7,9-dimethyl-14a-(((1-methylcyclopropyl)sulfonyl)carbamoyl)-5,16-dioxo-1,2,3,5,6,7,8,9,10,11,13a,14,14a,15,16,16a-hexadecahydrocyclopropa[e]pyrrolo[1,2-a][1,4]diazacyclopentadecin-6-yl)carbamate]",< 5.46 nM,< 5.46 nM,,
"COc1cnc(O[C@@H]2C[C@H]3C(=O)N[C@]4(C(=O)NS(=O)(=O)C5(C)CC5)C[C@H]4/C=C\CC[C@@H](C)C[C@@H](C)[C@H](NC(=O)OC(C)(C)C)C(=O)N3C2)c2ccccc12 [Compound 4057, tert-butyl (2R,6S,7R,9R,13aS,14aR,16aS,Z)-2-(4-methoxyisoquinolin-1-yloxy)-7,9-dimethyl-14a-(1-methylcyclopropylsulfonylcarbamoyl)-5,16-dioxo-1,2,3,5,6,7,8,9,10,11,13a,14,14a,15,16,16a-hexadecahydrocyclopropa[e]pyrrolo[1,2-a][1,4]diazacyclopentadecin-6-ylcarbamate]",< 5.46 nM,< 5.46 nM,,
COc1cnc(O[C@@H]2C[C@H]3C(=O)N[C@]4(C(=O)NS(=O)(=O)C5CC5)C[C@H]4/C=C\CC[C@@H](C)C[C@@H](C)[C@H](NC(=O)OC(C)(C)C(F)(F)F)C(=O)N3C2)c2cc(F)ccc12 [Compound 4059],,,< 5.46 nM,< 5.46 nM
COc1cnc(O[C@@H]2C[C@H]3C(=O)N[C@]4(C(=O)NS(=O)(=O)C5(C)CC5)C[C@H]4/C=C\CC[C@@H](C)C[C@@H](C)[C@H](NC(=O)OC(C)(C)C(F)(F)F)C(=O)N3C2)c2cc(F)ccc12 [Compound 4060],,,< 5.46 nM,< 5.46 nM
"CCOc1cnc(O[C@@H]2C[C@H]3C(=O)N[C@]4(C(=O)NS(=O)(=O)C5CC5)C[C@H]4/C=C\CC[C@@H](C)C[C@@H](C)[C@H](NC(=O)OC(C)(C)C)C(=O)N3C2)c2cc(F)ccc12 [Compound 4061, tert-butyl (2R,6S,7R,9R,13aS,14aR,16aS,Z)-14a-(cyclopropylsulfonylcarbamoyl)-2-(4-ethoxy-7-fluoroisoquinolin-1-yloxy)-7,9-dimethyl-5,16-dioxo-1,2,3,5,6,7,8,9,10,11,13a,14,14a,15,16,16a-hexadecahydrocyclopropa[e]pyrrolo[1,2-a][1,4]diazacyclopentadecin-6-ylcarbamate]",< 5.46 nM,< 5.46 nM,,
CCOc1cnc(O[C@@H]2C[C@H]3C(=O)N[C@]4(C(=O)NS(=O)(=O)C5CC5)C[C@H]4/C=C\CC[C@@H](C)C[C@@H](C)[C@H](NC(=O)OC(C)(C)C(F)(F)F)C(=O)N3C2)c2cc(F)ccc12 [Compound 4062],,,< 5.46 nM,< 5.46 nM

# Reference: patent publication US9499550B2 (BRISTOL-MYERS SQUIBB COMPANY, priority 2012, dated 2016)
